ChEMBL document CHEMBL6071130, “A comprehensive review of small molecule drugs approved by the FDA in 2023: Advances and prospects” (Eur J Med Chem, 2024)

Tests used:
in vivo = settings: mouse, po
Description: Oral bioavailability in mouse

[1] = Half life in mouse; format: ADME, organism-based; settings: in vivo

Description for Gamma-secretase: Inhibition of Gamma-secretase (unknown origin)

Row | IC50 (Gamma-secretase) [nM] | bioavailability (in vivo) [%] | half-life [1] [h] | Compound
1 | 20 | – | – | C[C@H](NC(=O)Cc1cc(F)cc(F)c1)C(=O)N[C@H](C(=O)OC(C)(C)C)c1ccccc1
2 | – | 60 | 7 | CCO[C@H]1CCN(Cc2c(OC)cc(C)c3[nH]ccc23)[C@H](c2ccc(C(=O)O)cc2)C1 [IPTACOPAN]
